Reference: patent publication US20060276393A1, “Novel compositions for preventing and treating neurodegenerative and blood coagulation disorders” (Sirtris Pharmaceuticals, Inc., priority 2005, published 2006)
Like-named read-outs stand apart in the source and are kept apart here.

How the values were obtained:
[1] = target: T1, recombinant dSir2 (Drosophila melanogaster, UniProt Q9VK34); experiment: dSir2 deacetylation assay; type: biochemical, D. melanogaster; conditions: dose-dependent; Fluor de Lys
T1 sequence (Q9VK34 1-823): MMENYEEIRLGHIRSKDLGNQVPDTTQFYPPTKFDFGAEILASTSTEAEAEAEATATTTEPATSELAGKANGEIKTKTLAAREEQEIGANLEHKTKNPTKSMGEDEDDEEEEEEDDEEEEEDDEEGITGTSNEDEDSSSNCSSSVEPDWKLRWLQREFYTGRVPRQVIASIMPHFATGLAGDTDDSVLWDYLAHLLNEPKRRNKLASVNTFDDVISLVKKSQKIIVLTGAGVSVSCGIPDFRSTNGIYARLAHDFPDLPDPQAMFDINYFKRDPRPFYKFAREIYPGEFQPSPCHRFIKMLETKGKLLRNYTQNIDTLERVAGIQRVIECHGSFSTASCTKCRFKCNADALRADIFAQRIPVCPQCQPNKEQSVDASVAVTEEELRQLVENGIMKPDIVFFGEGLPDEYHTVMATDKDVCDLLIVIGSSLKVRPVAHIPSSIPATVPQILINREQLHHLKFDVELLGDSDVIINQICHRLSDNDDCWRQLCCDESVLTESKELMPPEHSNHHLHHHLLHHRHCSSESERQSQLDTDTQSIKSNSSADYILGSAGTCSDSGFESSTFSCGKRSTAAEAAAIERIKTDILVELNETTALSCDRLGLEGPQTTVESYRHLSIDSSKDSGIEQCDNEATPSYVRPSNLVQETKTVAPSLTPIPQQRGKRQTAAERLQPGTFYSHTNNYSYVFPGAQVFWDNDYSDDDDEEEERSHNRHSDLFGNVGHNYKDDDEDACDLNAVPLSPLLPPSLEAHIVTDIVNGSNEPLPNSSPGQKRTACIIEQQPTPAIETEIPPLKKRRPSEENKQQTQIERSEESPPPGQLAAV
Description: STACs were dissolved at 10 mM in dimethylsulfoxide (DMSO) the day of the assay. […] Drosophila S2 cells were grown in Schneider media with fetal calf serum at 23-28° C., seeded at 9×10^4 cells/well, grown overnight and then exposed to 1 μM TSA, 500 μM polyphenols, and 200 μM FdL for 2 hr. Deacetylation of FdL with lysate from whole cells was determined as described^4. Unless otherwise indicated all initial rate measurements were means of three or more replicates obtained with single incubation times, at which point 5% or less of the substrate initially present was deacetylated.

[2] = target: T2, SIRT1 deacetylase (BIOMOL) (Homo sapiens, UniProt Q96EB6); experiment: High-throughput SIRT1 screening protocol (ICCB library); type: biochemical; conditions: positive controls; 200 μM NAD+, 5 μM Fluor de Lys-SIRT1; resveratrol 50 μM
T2 construct: purchased BIOMOL
T2 sequence (Q96EB6 1-747): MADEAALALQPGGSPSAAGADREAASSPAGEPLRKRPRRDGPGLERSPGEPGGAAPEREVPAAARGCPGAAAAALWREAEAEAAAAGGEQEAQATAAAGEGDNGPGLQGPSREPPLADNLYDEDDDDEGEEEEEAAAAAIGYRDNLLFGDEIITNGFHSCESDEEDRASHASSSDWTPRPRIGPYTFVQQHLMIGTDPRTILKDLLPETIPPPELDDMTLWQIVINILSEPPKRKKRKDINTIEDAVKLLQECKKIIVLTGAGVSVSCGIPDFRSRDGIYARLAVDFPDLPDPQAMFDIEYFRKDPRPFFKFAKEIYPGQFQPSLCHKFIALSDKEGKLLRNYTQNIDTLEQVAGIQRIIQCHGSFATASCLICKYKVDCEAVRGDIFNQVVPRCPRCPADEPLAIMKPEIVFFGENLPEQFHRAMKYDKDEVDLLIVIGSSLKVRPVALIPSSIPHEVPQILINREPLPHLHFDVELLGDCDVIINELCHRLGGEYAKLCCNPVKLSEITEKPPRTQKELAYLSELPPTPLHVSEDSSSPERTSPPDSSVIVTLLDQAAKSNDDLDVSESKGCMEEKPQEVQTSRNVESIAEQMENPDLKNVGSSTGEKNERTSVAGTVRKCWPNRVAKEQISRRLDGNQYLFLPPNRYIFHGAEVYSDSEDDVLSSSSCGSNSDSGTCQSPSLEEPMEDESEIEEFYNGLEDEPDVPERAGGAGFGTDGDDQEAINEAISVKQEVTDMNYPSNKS
Description: The reaction mixture contains (final): 0.5 units/reaction SIRT1 deacetylase (BIOMOL); 200 μM NAD^+; 5 μM Fluor de Lys-SIRT1 substrate (BIOMOL); buffer (25 mM Tris/Cl, pH 8.0, 137 mM NaCl, 2.7 mM KCl, 1 mM MgCl2, and 1 mg/ml BSA). In addition, a reaction mixture containing no enzyme was made so that each well receiving compound has a corresponding “no enzyme control” well. Reactions were performed in black 384 well plates (NUNC) in a final volume of 25 μl/well.
The reactions were started by combining enzyme and substrate in a reaction mixture immediately prior to aliquoting in plates (or substrate only for “no enzyme control” plates). Mixture were aliquoted to plates using Biotek μfill (Biotek Instruments). Control mixtures were manually added to designated wells. A library compound was added at a desired concentration by pin transfer to both “with enzyme” and “no enzyme” plates. Compounds were added in at least triplicate (with enzyme reaction in duplicate and no enzyme controls) at a final concentration of roughly 50 μM. The plates were incubated at 37° C for 30-60 minutes. Then 25 μl of 1× Developer II (BIOMOL) plus 2 mM nicotinamide were added to all wells to stop the reactions. The reactions were left for at least 30 minutes at 37° C. for the signal to develop. The plates were read in a microplate-reading fluorometer capable of excitation at a wavelength in the range of 350-380 nm and detection of emitted light in the range of 440-460 nm. A read time of 0.1 sec per well was used.

[3] = system: Experimental autoimmune encephalomyelitis (EAE) in SJL/J mice; conditions: for Mean total EAE score: 30 days from day 11, vehicle 72.38; for Mean EAE Score - Last 10 Days: vehicle 23.00

`Oc1ccc(/C=C/c2cc(O)cc(O)c2)cc1` [Resveratrol, 3,5,4′-Trihydroxy-trans-stilbene] was tested, and the “stimulated deacetylation (maximum)” value [1] was ≤ 2.4 fold, the “activated SIRT1” value [2] was 2.2 fold and the clinical course ([3]; high dose resveratrol 400 mg/kg/day) was “not different from controls”. The “peak and overall disease level” value ([3]; low dose resveratrol 200 mg/kg/day) was “slightly higher than controls”, the “Mean total EAE score” value ([3]; resveratrol 200 mg/kg/day IP) was 94.00 and the “Mean EAE Score - Last 10 Days” value ([3]; resveratrol 200 mg/kg/day IP) was 28.63. For the same molecule, the “Mean total EAE score” value ([3]; resveratrol 400 mg/kg/day IP) was 73.00 and the “Mean EAE Score - Last 10 Days” value ([3]; resveratrol 400 mg/kg/day IP) was 21.88.
